# Assays:
# Format in all cases: in vivo
# panel of trained tasters = experiment: Taste evaluation in water
# Procedure: A one percent cut of each compound of Examples 1-13 was prepared first. The hydrochloride salts were cut directly into water, while the free base examples were cut into ethanol. Next, 100 ml of a 1 ppm, 10 ppm and 20 ppm solution were prepared. The 1 ppm standards were prepared by addition of 0.0126 ml (cut in ethanol) or 0.01 ml (cut in water) to an amber bottle followed by dilution to 100 g total sample weight using water. The 10 and 20 ppm solutions were prepared similarly, but using 0.126 ml ethanol/0.1 ml water or 0.252 ml ethanol/0.2 ml water of the 1% cuts respectively. Next, the samples were evaluated by a panel of trained tasters.
# bench-top tasting panel [1] = experiment: Bain marie (hot water bath) test with chicken broth; settings: hot water bath 150° F. for 4 hours, Example 3 3 ppm, Example 13 2 ppm (table), Example 10 3 ppm, Example 9 2 ppm; for umami strength ranking: MSG 0.20%, 7 panelists
# Procedure: (§1) Umami evaluations were done in dry noodle seasoning, chicken broth, retorted chicken broth, cheese sauce and salted potato chip applications. Each application was prepared using MSG, the experimental umami tastant and a blank which contained neither MSG nor the experimental umami tastant. Next, using a bench-top tasting panel (consisting of 7 to 14 panelists), panelists were asked to record the sensory attribute differences between the control (blank), the MSG application and the application containing the experimental umami tastant. These sensory attributes include umami, saltiness, bitterness, off-notes, mouth feel attribute, lingering attribute and flavor profile differences.
# Chicken broth was prepared as previously described in example 15. Compounds from Examples 3, 9, 10 and 13 were added to the chicken broth in the concentrations described below and placed in a hot water bath (150° F.) for 4 hours prior to taste evaluation.
# bench-top tasting panel [2] = experiment: Umami evaluation in retorted chicken broth (Example 20); settings: Example 3 4 ppm, Example 13 3 ppm, Example 10 4 ppm, Example 9 3 ppm; for umami strength ranking: MSG 0.20%, 9 panelists
# Procedure: as §1
# The procedure for the preparation of the retorted chicken broth is the same as in example 16. Compounds from Examples 3, 9, 10 and 13 were spiked individually into the chicken broth generating six samples, as described below.
# bench-top tasting panel [3] = experiment: Umami evaluation on salted potato chips (Example 22); settings: 1% salted potato chips, Example 3 10 ppm, Example 13 10 ppm, Example 10 6 ppm, Example 9 10 ppm; for umami strength ranking: MSG 0.2%, 9 panelists
# Procedure: as §1
# The potato chips were prepared as previously described in example 19 and spiked with compounds from Examples 3, 9, 10 and 13 as described below.
SMILES,aroma (panel of trained tasters; 1 ppm in water),taste (panel of trained tasters; 1 ppm in water),taste (panel of trained tasters; 10 ppm in water),aroma (panel of trained tasters; 20 ppm in water),flavor profile described by panelists (bench-top tasting panel [1]),umami strength ranking (bench-top tasting panel [1]),flavor profile described by panelists (bench-top tasting panel [2]),umami strength ranking (bench-top tasting panel [2]),flavor profile described by panelists (bench-top tasting panel [3]),umami strength ranking (bench-top tasting panel [3]),taste (panel of trained tasters; 20 ppm in water),aroma (panel of trained tasters; 10 ppm in water)
"Oc1cccc(SCCc2ccccn2)c1 [Example 10, 3-((2-(PYRIDIN-2-YL)ETHYL)THIO)PHENOL]",green,very weak bitter,"weak: umami, metallic, very weak: bitter,",vegetable,mid/late umami along with a slight bitterness and off notes,MSG>2 ppm example 9>3 ppm Example 10=4 ppm Example 13>Blank chicken broth>3 ppm Example 3,a green pepper aroma and was slightly bitter,MSG>3 ppm example 9>3 ppm Example 13>4 ppm Example 3>Blank retorted chicken broth>4 ppm Example 10,"a nice salty, slight umami profile along with a slight offnote",10 ppm Example 3>10 ppm Example 9>MSG>10 ppm Example 13>blank>6 ppm Example 10,–,–
"Cc1cccc(SCCc2ccccn2)c1.Cl [Example 12, 2-(2-(M-TOLYLTHIO)ETHYL)PYRIDINE HYDROCHLORIDE]",–,"weak: umami, astringent, very weak salty","moderate umami, weak: salty, astringent",–,–,–,–,–,–,–,"moderate to strong umami, weak: salty,",–
"COc1cccc(SCCc2ccccn2)c1 [Example 8, 2-(2-((3-METHOXYPHENYL)THIO)ETHYL)PYRIDINE]","Green pepper, beany","very weak metallic, weak astringent","weak: umami, astringent, very weak: bitter,",Green pepper,–,–,–,–,–,–,"weak: umami, very weak: bitter, metallic",Green pepper
"Oc1ccccc1SCCc1ccccn1 [Example 7, 2-((2-(PYRIDIN-2-YL)ETHYL)THIO)PHENOL]",Green pepper,"very weak: umami, salty, weak bitter","weak to moderate umami, weak: bitter, metallic,",Green pepper,–,–,–,–,–,–,"Weak to moderate umami, weak bitter, very",Green pepper
"Oc1ccc(SCCc2ccccn2)cc1 [Example 6, 4-((2-(PYRIDIN-2-YL)ETHYL)THIO)PHENOL]",green,"very weak: umami, astringent","weak: umami, bitter, astringent, very weak","Green, fruity",–,–,–,–,–,–,"weak: umami, bitter, astringent, very weak","Green, fruity"
"Cl.c1ccc(SCCc2ccccn2)cc1 [Example 2, 2-(2-(PHENYLTHIO)ETHYL)PYRIDINE HYDROCHLORIDE]",green,"weak umami, very weak astringent","moderate umami, very weak: salty, bitter,",green,–,–,–,–,–,–,"moderate umami, weak: salty, bitter, astringent",green
"c1ccc(CSCCc2ccccn2)cc1 [Example 11, 2-(2-(BENZYLTHIO)ETHYL)PYRIDINE]",phenolic,"weak umami, very weak astringent","weak umami, very weak astringent","Phenolic, spicy",–,–,–,–,–,–,"moderate to strong umami, very weak bitter,","Phenolic, spicy"
"Cc1ccccc1SCCc1ccccn1.Cl [Example 5, 2-(2-(O-TOLYLTHIO)ETHYL)PYRIDINE HYDROCHLORIDE]",green pepper,"weak bitter, astringent, very weak metallic","weak umami, very weak bitter",green pepper,–,–,–,–,–,–,"weak umami, very weak: bitter, astringent",green pepper
"COC(=O)c1ccc(SCCc2ccccn2)cc1.Cl [Example 3, METHYL 4-((2-(PYRIDIN-2-YL)ETHYL)THIO)BENZOATE HYDROCHLORIDE]",–,"weak to moderate umami, very weak: bitter,","moderate umami, weak: bitter, metallic,",bloody metallic,"a bitter, limited umami flavor profile",MSG>2 ppm example 9>3 ppm Example 10=4 ppm Example 13>Blank chicken broth>3 ppm Example 3,a sweeter flavor profile with a build up of umami character,MSG>3 ppm example 9>3 ppm Example 13>4 ppm Example 3>Blank retorted chicken broth>4 ppm Example 10,a slight to moderate level of umami along with strong salty profile,10 ppm Example 3>10 ppm Example 9>MSG>10 ppm Example 13>blank>6 ppm Example 10,"moderate to strong umami, weak: bitter,",bloody metallic
"COC(=O)c1ccccc1SCCc1ccccn1.Cl [Example 9, METHYL 2-((2-(PYRIDIN-2-YL)ETHYL)THIO)BENZOATE HYDROCHLORIDE]",–,"weak: umami, astringent, very weak: salty,","moderate umami,, weak: salty, astringent, very",–,"a boost in saltiness along with a strong, full umami taste profile",MSG>2 ppm example 9>3 ppm Example 10=4 ppm Example 13>Blank chicken broth>3 ppm Example 3,"a sweet, full umami profile",MSG>3 ppm example 9>3 ppm Example 13>4 ppm Example 3>Blank retorted chicken broth>4 ppm Example 10,"better mouthfeel, slight to moderate umami with an overall clean profile",10 ppm Example 3>10 ppm Example 9>MSG>10 ppm Example 13>blank>6 ppm Example 10,"moderate umami, weak: salty, astringent,",–
"Cc1ccc(SCCc2ccccn2)cc1.Cl [Example 4, 2-(2-(P-TOLYLTHIO)ETHYL)PYRIDINE HYDROCHLORIDE]",–,"very weak: umami, bitter, astringent","weak: umami, bitter, astringent, very weak",green,–,–,–,–,–,–,"Weak: umami, bitter, metallic, sour, astringent",green
"COc1ccc(SCCc2ccccn2)cc1.Cl [Example 13, 2-(2-((4-METHOXYPHENYL)THIO)ETHYL)PYRIDINE HYDROCHLORIDE]",–,"Weak umami, very weak bitter, astringent","Moderate to strong umami, very weak: bitter,",pyrazine,mid/late umami with some late onset bitterness,MSG>2 ppm example 9>3 ppm Example 10=4 ppm Example 13>Blank chicken broth>3 ppm Example 3,a slightly sweet/slightly bitter profile,MSG>3 ppm example 9>3 ppm Example 13>4 ppm Example 3>Blank retorted chicken broth>4 ppm Example 10,"A good, salty, umami profile",10 ppm Example 3>10 ppm Example 9>MSG>10 ppm Example 13>blank>6 ppm Example 10,"Strong umami, very weak bitter",–
